Values of other authors, collected in patent US8790626B2, “Method for treating hair growth disorders, such as female pattern alopecia, and compositions useful therefore” (The University of Kentucky, priority 2005, dated 2014).

What was measured:
[1] = Jacobson, et al., 2005
[2] = U.S. Pat. No. 6,924,299

Row | Structure (SMILES) | Epidermal differentiation and skin barrier integrity [1] | Blood flow and oxygen delivery to tissue [2]
1 | CCCCCCCCCCCCCCOC(=O)c1cccnc1 [Myristyl nicotinate, myristyl nicotinate] | promote epidermal differentiation leading to strong enhancement of skin barrier integrity | 
2 | CCCCCCCCOC(=O)c1cccnc1 [octyl nicotinate] |  | stimulates blood flow and oxygen delivery to tissue
